According to article PMC7247319, “The mitochondria-targeted peptide SS-31 binds lipid bilayers and modulates surface electrostatics as a key component of its mechanism of action” (The Journal of Biological Chemistry, 2020):
Where a SMILES comes first, the peptide text is derived from it. [ ]: non-standard residue; d: D form. Dmt = Cc1cc(O)cc(C)c1C[C@H](N)C(=O)O

System: LUVs containing 20% TOCL or 20% POPG
Test: ANS fluorescence reporter of surface potential of model membranes
Settings: increasing [peptide]/[lipid]eff, 20% TOCL or 20% POPG LUVs
Description: Figure 3. SS-31 binding and surface electrostatics. A, binding isotherms. Peptide was titrated with LUVs of the indicated composition (20% TOCL, [SS-31] = 7.5 μM and 20% POPG, [SS-31] = 3.8 μM) at 30-nmol total lipid increments in the presence of different concentrations of added KCl. Values shown are means ± S.D. (error bars) (n = 3), and lines show data fits based on Equation S3. […] B and C, effect of SS-31 binding on surface charge. Measurements of ζ (B) and ANS fluorescence (C) are shown as a function of [SS-31]/[lipid]^eff for membranes containing 20% TOCL and 20% POPG as indicated. Values shown are means ± S.D. (error bars) (n = 3).
To continue this analysis, we determined the relationship between SS-31 binding and surface electrostatics by two complementary approaches. […] As an independent technique, we measured the effect of SS-31 on surface electrostatics using 1-anilinonaphthalene-8-sulfonic acid (ANS), a fluorescent reporter whose binding to anionic bilayers increases as the magnitude of the ψs is reduced, measured as an increase in probe emission intensity ([42]) (Fig. 3C and Fig. S9D). […]
Steady-state fluorescence measurements were performed with a Fluorolog 3-22 spectrofluorometer (HORIBA Jobin-Yvon) equipped with photon-counting electronics, double-grating excitation and emission monochromators, automated Glan–Thompson polarizers, and a 450-watt xenon lamp. […]

Cc1cc(O)cc(C)c1C[C@H](NC(=O)[C@H](N)CCCNC(=N)N)C(=O)N[C@@H](CCCCN)C(=O)N[C@@H](Cc1ccccc1)C(N)=O [SS-31, D-Arg-2′6′-dimethyl-Tyr-Lys-Phe-NH2] (H-[dR][Dmt]KF-NH2)
effect on ANS-detected surface potential (ψs) of anionic model membranes: saturable ANS-detected reduction in the ψs
